Data from patent US20060293307A1, “Oxazolidinone derivatives as antimicrobials” (priority 2002, published 2006).
≈ marks a conversion by molar mass, not a printed value.

Key:
[1] = test system: S. aureus ATCC 25923; test: MIC, agar incorporation method; type: cell-based, Staphylococcus aureus; settings: S. No. 1, organism cell empty
[2] = test system: S. aureus SG 511; test: MIC, agar incorporation method; type: cell-based, Staphylococcus aureus; settings: S. No. 3, S. aureus SG 511
[3] = test system: S. aureus (MRSA) 21299; test: MIC, agar incorporation method; type: cell-based, Staphylococcus aureus; settings: S. No. 5, S. aureus (MRSA) 21299
[4] = test system: S. aureus (MRSA) ST450; test: MIC, agar incorporation method; type: cell-based, Staphylococcus aureus; settings: S. No. 6, S. aureus (MRSA) ST450
[5] = test system: S. aureus (MRSA 33) Cipro R; test: MIC, agar incorporation method; type: cell-based, Staphylococcus aureus; settings: S. No. 7, S. aureus (MRSA 33) Cipro R
[6] = test system: S. aureus (Smith 49951); test: MIC, agar incorporation method; type: cell-based, Staphylococcus aureus; settings: S. No. 9, S. aureus (Smith 49951)
[7] = test system: S. epidermidis 358; test: MIC, agar incorporation method; type: cell-based, Staphylococcus epidermidis; settings: S. No. 14, S. epidermidis 358
[8] = test system: S. haemo ATCC 29970; test: MIC, agar incorporation method; type: cell-based; settings: S. No. 15, S. haemo ATCC 29970
[9] = test system: E. faecalis 21777; test: MIC, agar incorporation method; type: cell-based; settings: S. No. 18, E. faecalis 21777
[10] = test system: E. faecalis SP 346 (VRE); test: MIC, agar incorporation method; type: cell-based; settings: S. No. 20, E. faecalis SP 346 (VRE)
[11] = test system: E. faecium 398(VRE); test: MIC, agar incorporation method; type: cell-based, Enterococcus faecium; settings: S. No. 22, E. faecium 398(VRE)
[12] = test system: K. oxytoca 49131; test: MIC, agar incorporation method; type: cell-based; settings: S. No. 27, K. oxytoca 49131
[13] = test system: Acinetobacter 9956; test: MIC, agar incorporation method; type: cell-based; settings: S. No. 30, Acinetobacter 9956
[14] = test system: S. pneumoniae AB-3; test: MIC, agar incorporation method; type: cell-based, Streptococcus pneumoniae; settings: S. No. 32, S. pneumoniae AB-3
[15] = test system: S. pneumoniae CS1221; test: MIC, agar incorporation method; type: cell-based, Streptococcus pneumoniae; settings: S. No. 34, S. pneumoniae CS1221
[16] = test system: S. pneumoniae AB 31; test: MIC, agar incorporation method; type: cell-based, Streptococcus pneumoniae; settings: S. No. 36, S. pneumoniae AB 31
[17] = test system: S. pneumoniae AB 14; test: MIC, agar incorporation method; type: cell-based, Streptococcus pneumoniae; settings: S. No. 37, S. pneumoniae AB 14
[18] = test system: S. pneumoniae AB 17; test: MIC, agar incorporation method; type: cell-based, Streptococcus pneumoniae; settings: S. No. 40, S. pneumoniae AB 17
[19] = test system: S. pneumoniae AB 23; test: MIC, agar incorporation method; type: cell-based, Streptococcus pneumoniae; settings: S. No. 43, S. pneumoniae AB 23
[20] = test system: S. pneumoniae CS 1687; test: MIC, agar incorporation method; type: cell-based, Streptococcus pneumoniae; settings: S. No. 44, S. pneumoniae CS 1687
[21] = test system: S. pneumoniae ATCC 49619; test: MIC, agar incorporation method; type: cell-based, Streptococcus pneumoniae; settings: S. No. 48, S. pneumoniae ATCC 49619
[22] = test system: S. pyogenes 19615; test: MIC, agar incorporation method; type: cell-based, Streptococcus pyogenes; settings: S. No. 51, S. pyogenes 19615
[23] = test system: S. pyogenes 25147; test: MIC, agar incorporation method; type: cell-based, Streptococcus pyogenes; settings: S. No. 52, S. pyogenes 25147
[24] = test system: S. pneumoniae 1256; test: MIC, agar incorporation method; type: cell-based, Streptococcus pneumoniae; settings: S. No. 56, S. pneumoniae 1256
[25] = test system: H. influenzae ATCC 49247; test: MIC against Haemophilus strains; type: cell-based; settings: s. No. 2, H. influenzae ATCC 49247
[26] = test system: H. influenzae βIac; test: MIC against Haemophilus strains; type: cell-based; settings: s. No. 3, H. influenzae βIac

SMILES | MIC [1] [µg/mL] | MIC [2] [µg/mL] | MIC [3] [µg/mL] | MIC [4] [µg/mL] | MIC [5] [µg/mL] | MIC [6] [µg/mL] | MIC [7] [µg/mL] | MIC [8] [µg/mL] | MIC [9] [µg/mL] | MIC [10] [µg/mL] | MIC [11] [µg/mL] | MIC [12] [µg/mL] | MIC [13] [µg/mL] | MIC [14] [µg/mL] | MIC [15] [µg/mL] | MIC [16] [µg/mL] | MIC [17] [µg/mL] | MIC [18] [µg/mL] | MIC [19] [µg/mL] | MIC [20] [µg/mL] | also measured
CC(=O)NC[C@H]1CN(c2ccc(N3CCN(c4ccc([N+](=O)[O-])s4)CC3)cc2)C(=O)O1 [Compound No. 6, (S)—N-[[3-[4-[N-1-(5-nitro-2-thienyl)piperazinyl]-phenyl]-2-oxo-5-oxazolidinyl]-methyl]-acetamide] | 2 (≈ 4.49 µM) | 2 (≈ 4.49 µM) | 1 (≈ 2.24 µM) | 2 (≈ 4.49 µM) | 1 (≈ 2.24 µM) | 1 (≈ 2.24 µM) | 1 (≈ 2.24 µM) | 1 (≈ 2.24 µM) | 1 (≈ 2.24 µM) | 1 (≈ 2.24 µM) | 1 (≈ 2.24 µM) | >16 | >16 | 0.25 (≈ 0.561 µM) | 0.25 (≈ 0.561 µM) | 0.5 (≈ 1.12 µM) | <0.125 | 0.25 (≈ 0.561 µM) | 0.5 (≈ 1.12 µM) | 0.5 (≈ 1.12 µM) | MIC [21]: 0.5 µg/mL (≈ 1.12 µM); MIC [22]: 0.5 µg/mL (≈ 1.12 µM); MIC [23]: 0.5 µg/mL (≈ 1.12 µM); MIC [24]: 0.25 µg/mL (≈ 0.561 µM); MIC [25]: 16 µg/mL (≈ 35.9 µM); MIC [26]: 8 µg/mL (≈ 18 µM)
C[C@H](Cl)C(=O)NCC1CN(c2ccc(N3CCN(c4ccc([N+](=O)[O-])s4)CC3)c(F)c2)C(=O)O1 (stereo partly drawn) [Compound No. 7, (S)—N-[[3-[3-Fluoro-4-[N-1-{4-(5-nitro-2-thienyl)piperazinyl}]-phenyl]-2-oxo-5-oxazolidinyl]-methyl]-2-chloro-propionamide] | >8 | >8 | >8 | >8 | >8 | >8 | 2 (≈ 3.91 µM) | 2 (≈ 3.91 µM) | >8 | >8 | 8 (≈ 15.6 µM) | >8 | >8 | 0.5 (≈ 0.977 µM) | 0.5 (≈ 0.977 µM) | 1 (≈ 1.95 µM) | 1 (≈ 1.95 µM) | 1 (≈ 1.95 µM) | 1 (≈ 1.95 µM) | 2 (≈ 3.91 µM) | MIC [21]: 0.5 µg/mL (≈ 0.977 µM); MIC [22]: 2 µg/mL (≈ 3.91 µM); MIC [23]: 2 µg/mL (≈ 3.91 µM); MIC [24]: 0.25 µg/mL (≈ 0.488 µM); MIC [25]: >16 µg/mL; MIC [26]: >16 µg/mL
